Measurements reported in patent publication US20240139144A1, “COPPER CHELATOR, ANTICANCER AGENT AND PROPHYLACTIC OR THERAPEUTIC AGENT FOR WILSON'S DISEASE” (Murata Manufacturing Co., Ltd., priority 2021, published 2024).

Tests used:
[1] = Evaluation of copper chelating action by LC-MS after addition of CuCl2; format: binding; details: for copper chelating action: 10 mM compound in methanol, aqueous CuCl2 added to final 100 mM, shaken at 30° C. for 60 minutes, LC-MS; for peak of the ion of the compound (free compound) in the sample in which a copper ion was added / peak of the ion of the complex of the compound and a copper ion in the sample in which a copper ion was added: LC-MS positive mode, CuCl2 100 mM, 30° C., 60 minutes; for peak of the ion of the compound (free compound) in the sample in which a copper ion was added: m/z 379.00 for (1a), m/z 397.00 for (2a); for peak of the ion of the complex of the compound and a copper ion in the sample in which a copper ion was added: m/z 441.00 for (1a), m/z 459.00 for (2a)
Protocol: (Method for Evaluating Copper Chelating Action)
An aqueous CuCl2 solution was added to a methanol solution of 10 mM compound (1a) or 10 mM compound (2a) so as to have a final concentration of 100 mM, and the mixture was shaken at 30° C. for 60 minutes, and then analyzed by LC-MS. A methanol solution of 10 mM compound (la) or 10 mM compound (2a) to which an aqueous CuCl2 solution was not added was also analyzed by LC-MS.
(LC-MS measurement conditions)
Pure water to which 0.1% formic acid was added was used as a solvent A, and acetonitrile was used as a solvent B. The samples were separated on a reversed-phase column (Cosmosil 5.0C 18-MS-II 2.0×100 mm (manufactured by Nacalai Tesque, Inc.)). At this time, the flow rate was set to 0.2 ml/min, and elution was performed in a gradient mode in which the proportion of the solvent B was set to 2% until 2 minutes, and then changed from 2 to 98% from 2 to 15 minutes. The eluted sample was ionized by electrospray ionization method in a positive mode.

Candida albicans = details: against Candida albicans; cited from earlier work
gram-positive bacteria = details: against gram-positive bacteria; cited from earlier work

[C-]#[N+][C@@H](Cc1ccc(O)c(-c2cc(C[C@H]([N+]#[C-])C(N)=O)ccc2O)c1)C(N)=O [compound (1a)]
copper chelating action [1]: has a copper chelating action | peak of the ion of the compound (free compound) in the sample in which a copper ion was added [1]: not observed | peak of the ion of the complex of the compound and a copper ion in the sample in which a copper ion was added [1]: observed | copper chelating action compared between compounds ([1]; comparison between FIGS. 1 and 2 and FIGS. 4 and 5): stronger than that of the compound (2a)

[C-]#[N+][C@@H](Cc1ccc(O)c(-c2cc(C[C@H](NC=O)C(N)=O)ccc2O)c1)C(N)=O [compound (2a)]
copper chelating action [1]: has a copper chelating action | peak of the ion of the compound (free compound) in the sample in which a copper ion was added [1]: small | peak of the ion of the complex of the compound and a copper ion in the sample in which a copper ion was added [1]: observed

hazimycin A
antimicrobial activity (Candida albicans): antimicrobial activity | antimicrobial activity (gram-positive bacteria): antimicrobial activity
